Patent US10828317B2, “Method of treating bacterial infections” (priority 2016, dated 2020)
Like-named read-outs stand apart in the source and are kept apart here.

Columns and labels:
E. coli EN001 = assay: MIC, WT (EN001 = EN0001, ATCC 25922); assay type: cell-based, Escherichia coli
S. flexneri APV00907 = assay: MIC and antibiogram; assay type: cell-based; conditions: Shigella flexneri, Table 22A
Text: Inhibition of Heliobacter is important in view of increasing resistance and its association to gastric cancer.

S. aureus EN008 = assay: MIC, Gram-positive control; assay type: cell-based, Staphylococcus aureus; conditions: Staphylococcus aureus, read-out: MIC
S. marescens EN0454 = assay: MIC; assay type: cell-based, Serratia marescens; conditions: Serratia, read-out: MIC
[1] = tested on: A. pittii or A. nosocomialis EN0180; assay: MIC; assay type: cell-based, Acinetobacter pittii or nosocomialis; conditions: read-out: MIC
E. coli EN0134 = assay: MIC, AmpC (CMY-4); assay type: cell-based; conditions: Escherichia coli, EN0134, combination didanosine+trimethoprim+uridine, Table 20; read-out: MIC
P. aeruginosa EN0459 = assay: MIC; assay type: cell-based, Pseudomonas aeruginosa; conditions: Pseudomonas aeruginosa, read-out: MIC
K. pneumoniae EN006 = assay: MIC, WT (EN006 = EN0006, ATCC 13883); assay type: cell-based, Klebsiella pneumoniae; conditions: Klebsiella pneumoniae, read-out: MIC
K. pneumoniae EN0249 = assay: MIC, colistinR; assay type: cell-based; conditions: Klebsiella pneumoniae, EN0249, combination didanosine+trimethoprim+uridine, Table 20; read-out: MIC
K. pneumoniae EN0144 = assay: MIC, MBL (VIM-1); assay type: cell-based; conditions: Klebsiella pneumoniae, EN0144, combination didanosine+trimethoprim+uridine, Table 20; read-out: MIC
K. pneumoniae EN0245 = assay: MIC, colistinR; assay type: cell-based; conditions: Klebsiella pneumoniae, EN0245, combination didanosine+trimethoprim+uridine, Table 20; read-out: MIC
E. coli EN002 = assay: MIC, DtoIC; assay type: cell-based, Escherichia coli; conditions: Escherichia coli, read-out: MIC
S. epidermidis EN0456 = assay: MIC; assay type: cell-based, Staphylococcus epidermidis; conditions: Staphylococcus epidermidis, read-out: MIC
K. pneumoniae EN0145 = assay: MIC, KPC-2; assay type: cell-based; conditions: Klebsiella pneumoniae, read-out: MIC
E. coli EN0137 = assay: MIC, ESBL (CTX-M-15); assay type: cell-based; conditions: Escherichia coli, EN0137, combination didanosine+trimethoprim+uridine, Table 20; read-out: MIC
E. coli B EN0458 = assay: MIC; assay type: cell-based, Escherichia coli B; conditions: Escherichia coli, read-out: MIC
E. aerogenes EN0461 = assay: MIC; assay type: cell-based, Enterobacter aerogenes; conditions: Klebsiella aerogenes, read-out: MIC
P. aeruginosa EN0460 = assay: MIC; assay type: cell-based, Pseudomonas aeruginosa; conditions: Pseudomonas aeruginosa, read-out: MIC
S. sonnei APV00908 = assay: MIC and antibiogram; assay type: cell-based; conditions: Shigella sonnei, Table 22A

SMILES: O=c1ccn([C@@H]2O[C@H](CO)[C@@H](O)[C@H]2O)c(=O)[nH]1 [Uridine, uridine]
- MIC (E. coli EN001; Escherichia coli, EN001, combination AZT+trimethoprim+uridine, Table 6, read-out: MIC): 16 µg/mL
- MIC (E. coli EN001; Escherichia coli, EN001, combination FdUrd+trimethoprim+uridine, Table 8, read-out: MIC): 13 µg/mL
- MIC (E. coli EN001; Escherichia coli, EN001, combination didanosine+trimethoprim+uridine, Table 10, read-out: MIC): 13 µg/mL
- MIC (E. coli EN001; combination AZT+trimethoprim+uridine, Table 17B): 13 µg/mL
- MIC (S. flexneri APV00907; APV00907, combination AZT+trimethoprim+uridine): 200 µg/mL
- MIC (S. flexneri APV00907; APV00907, combination FdUrd+trimethoprim+uridine): > 400 µg/mL
- MIC (S. aureus EN008; EN008, Combination 2 AZT+trimethoprim+uridine+thymidine, Table 16): > 400 µg/mL
- MIC (S. aureus EN008; EN008, combination FdUrd+trimethoprim+uridine, Table 8): < 0.8 µg/mL
- MIC (S. marescens EN0454; EN0454, Combination 1 AZT+trimethoprim+uridine, Table 16): > 400 µg/mL
- MIC (S. marescens EN0454; EN0454, Combination 2 AZT+trimethoprim+uridine+thymidine, Table 16): > 400 µg/mL
- MIC (S. marescens EN0454; EN0454, combination didanosine+trimethoprim+uridine, Table 10): > 400 µg/mL
- MIC ([1]; Combination 1 AZT+trimethoprim+uridine, Table 16): > 400 µg/mL
- MIC ([1]; Combination 2 AZT+trimethoprim+uridine+thymidine, Table 16): > 400 µg/mL
- MIC ([1]; combination AZT+trimethoprim+uridine, Table 6): > 1000 µg/mL
- MIC ([1]; combination FdUrd+trimethoprim+uridine, Table 8): 400 µg/mL
- MIC ([1]; combination didanosine+trimethoprim+uridine, Table 10): > 400 µg/mL
- MIC (E. coli EN0134): > 400 µg/mL
- MIC (P. aeruginosa EN0459; EN0459, Combination 1 AZT+trimethoprim+uridine, Table 16): > 400 µg/mL
- MIC (P. aeruginosa EN0459; EN0459, Combination 2 AZT+trimethoprim+uridine+thymidine, Table 16): > 400 µg/mL
- MIC (P. aeruginosa EN0459; EN0459, combination AZT+trimethoprim+uridine, Table 6): > 1000 µg/mL
- MIC (P. aeruginosa EN0459; EN0459, combination FdUrd+trimethoprim+uridine, Table 8): > 400 µg/mL
- MIC (P. aeruginosa EN0459; EN0459, combination didanosine+trimethoprim+uridine, Table 10): > 400 µg/mL
- MIC (K. pneumoniae EN006; EN006, Combination 1 AZT+trimethoprim+uridine, Table 16): 12.5 µg/mL
- MIC (K. pneumoniae EN006; EN006, combination AZT+trimethoprim+uridine, Table 6): 16 µg/mL
- MIC (K. pneumoniae EN0249): > 400 µg/mL
- MIC (K. pneumoniae EN0144): > 400 µg/mL
- MIC (K. pneumoniae EN0245): > 400 µg/mL
- MIC (E. coli EN002; EN002, Combination 2 AZT+trimethoprim+uridine+thymidine, Table 16): 12.5 µg/mL
- MIC (E. coli EN002; EN002, combination AZT+trimethoprim+uridine, Table 6): 4 µg/mL
- MIC (E. coli EN002; EN002, combination FdUrd+trimethoprim+uridine, Table 8): 6 µg/mL
- MIC (E. coli EN002; EN002, combination didanosine+trimethoprim+uridine, Table 10): 6 µg/mL
- MIC (S. epidermidis EN0456; EN0456, Combination 1 AZT+trimethoprim+uridine, Table 16): 66.4 µg/mL
- MIC (S. epidermidis EN0456; EN0456, Combination 2 AZT+trimethoprim+uridine+thymidine, Table 16): 200 µg/mL
- MIC (S. epidermidis EN0456; EN0456, combination AZT+trimethoprim+uridine, Table 6): 16 µg/mL
- MIC (S. epidermidis EN0456; EN0456, combination FdUrd+trimethoprim+uridine, Table 8): < 0.8 µg/mL
- MIC (S. epidermidis EN0456; EN0456, combination didanosine+trimethoprim+uridine, Table 10): 6 µg/mL
- MIC (K. pneumoniae EN0145; EN0145, combination FdUrd+trimethoprim+uridine, Table 19): > 400 µg/mL
- MIC (K. pneumoniae EN0145; EN0145, combination didanosine+trimethoprim+uridine, Table 20): > 400 µg/mL
- MIC (E. coli EN0137): > 400 µg/mL
- MIC (E. coli B EN0458; BEN0458, combination FdUrd+trimethoprim+uridine, Table 8): 3 µg/mL
- MIC (E. coli B EN0458; BEN0458, combination didanosine+trimethoprim+uridine, Table 10): 3 µg/mL
- MIC (E. aerogenes EN0461; EN0461, Combination 2 AZT+trimethoprim+uridine+thymidine, Table 16): 200 µg/mL
- MIC (E. aerogenes EN0461; EN0461, combination AZT+trimethoprim+uridine, Table 6): 60 µg/mL
- MIC (P. aeruginosa EN0460; EN0460, Combination 1 AZT+trimethoprim+uridine, Table 16): > 400 µg/mL
- MIC (P. aeruginosa EN0460; EN0460, Combination 2 AZT+trimethoprim+uridine+thymidine, Table 16): > 400 µg/mL
- MIC (P. aeruginosa EN0460; EN0460, combination AZT+trimethoprim+uridine, Table 6): > 1000 µg/mL
- MIC (P. aeruginosa EN0460; EN0460, combination FdUrd+trimethoprim+uridine, Table 8): > 400 µg/mL
- MIC (P. aeruginosa EN0460; EN0460, combination didanosine+trimethoprim+uridine, Table 10): > 400 µg/mL
- MIC (S. sonnei APV00908; APV00908, combination AZT+trimethoprim+uridine): 3 µg/mL
- MIC (S. sonnei APV00908; APV00908, combination FdUrd+trimethoprim+uridine): > 400 µg/mL
